What was measured:
late watergrass = assay: Test Example 1: herbicidal activity, application before weed generation under submerged conditions (Table 16, symbol A); assay type: in vivo, late watergrass (Echinochloa oryzicola)
In short: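 Emulsion formulation, water-diluted to set dose, was put onto the flooded surface (4 cm depth, alluvial soil) the same day weeds were sown and 2.5-leaf rice transplanted. After 3 weeks at 25-30 °C under glass, each species was rated 0 (≤5% kill) to 5 (≥90% kill).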

Japanese bulrush = assay: Test Example 2: herbicidal activity, application during weed generation under submerged conditions (Table 17, symbol B); assay type: in vivo, Japanese bulrush (Schoenoplectus juncoides); conditions: application during weed generation, submerged conditions
In short: (§1)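 Mixed weed seedlings in alluvial soil under a 4 cm water layer, greenhouse-grown at 25–30° C. Compound given as a diluted emulsion into the floodwater at the 1–2 leaf stage; response graded after three weeks.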

oval-leafed pondweed = assay: Test Example 2: herbicidal activity, application during weed generation under submerged conditions (Table 17, symbol C); assay type: in vivo, oval-leafed pondweed (Monochoria vaginalis); conditions: application during weed generation, submerged conditions
In short: as §1

southern crabgrass [1] = assay: Test Example 4: herbicidal effect by soil treatment (Table 19, symbol F); assay type: in vivo, southern crabgrass (Digitaria ciliaris)
In short: (§2)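 Step 1: sow seeds in sterilized diluvial soil, cover ~1.5 cm. Step 2: spray diluted emulsion onto soil surface at predetermined rate. Step 3: greenhouse, 25–30° C, three weeks. Step 4: grade effect on each plant by earlier criteria.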

green foxtail = assay: Test Example 4: herbicidal effect by soil treatment (Table 19, symbol G); assay type: in vivo, green foxtail (Setaria viridis)
In short: as §2

blackgrass = assay: Test Example 4: herbicidal effect by soil treatment (Table 19, symbol J); assay type: in vivo, blackgrass (Alopecurus myosuroides)
In short: as §2

Italian ryegrass [2] = assay: Test Example 4: herbicidal effect by soil treatment (Table 19, symbol K); assay type: in vivo, Italian ryegrass (Lolium multiflorum)
In short: as §2

redroot pigweed = assay: Test Example 4: herbicidal effect by soil treatment (Table 19, symbol N); assay type: in vivo, redroot pigweed (Amaranthus retroflexus)
In short: as §2

chickweed = assay: Test Example 4: herbicidal effect by soil treatment (Table 19, symbol P); assay type: in vivo, common chickweed (Stellaria media)
In short: as §2

persian speedwell [3] = assay: Test Example 4: herbicidal effect by soil treatment (Table 19, symbol R); assay type: in vivo, Persian speedwell (Veronica persica)
In short: as §2

southern crabgrass [4] = assay: Test Example 5: herbicidal effect by foliage application, plastic box (Table 20, symbol F); assay type: in vivo, southern crabgrass (Digitaria ciliaris); conditions: foliage application, 3 weeks after application
In short: (§3)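 Foliar spray test: emulsion formulation diluted in water to a set application rate, sprayed onto 14-day-old plants raised in diluvial soil at 25° C to 30° C under glass. Both herbicidal effect and crop effect rated visually three weeks later.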

barnyard grass = assay: Test Example 5: herbicidal effect by foliage application, plastic box (Table 20, symbol H); assay type: in vivo, barnyard grass (Echinochloa crus-galli); conditions: foliage application, 3 weeks after application
In short: as §3

Italian ryegrass [5] = assay: Test Example 5: herbicidal effect by foliage application, plastic box (Table 20, symbol K); assay type: in vivo, Italian ryegrass (Lolium multiflorum); conditions: foliage application, 3 weeks after application
In short: as §3

lambsquarters = assay: Test Example 5: herbicidal effect by foliage application, plastic box (Table 20, symbol O); assay type: in vivo, lambsquarters (Chenopodium album); conditions: foliage application, 3 weeks after application
In short: as §3

persian speedwell [6] = assay: Test Example 5: herbicidal effect by foliage application, plastic box (Table 20, symbol R); assay type: in vivo, Persian speedwell (Veronica persica); conditions: foliage application, 3 weeks after application
In short: as §3

| SMILES | Herbicidal effect on A: late watergrass (grade 0-5) (late watergrass; 320 g/ha applied herbicide) | herbicidal effect rating, B: Japanese bulrush (Japanese bulrush; AAH 320 g/ha) | herbicidal effect rating, C: oval-leafed pondweed (oval-leafed pondweed; AAH 320 g/ha) | herbicidal effect rating, F: southern crabgrass (southern crabgrass [1]; 320 g/ha) | herbicidal effect rating, G: green foxtail (green foxtail; 320 g/ha) | herbicidal effect rating, J: blackgrass (blackgrass; 320 g/ha) | herbicidal effect rating, K: Italian ryegrass (Italian ryegrass [2]; 320 g/ha) | herbicidal effect rating, N: redroot pigweed (redroot pigweed; 320 g/ha) | herbicidal effect rating, P: chickweed (chickweed; 320 g/ha) | herbicidal effect rating, R: persian speedwell (persian speedwell [3]; 320 g/ha) | effect on southern crabgrass (F) (southern crabgrass [4]; 320 g/ha) | effect on barnyard grass (H) (barnyard grass; 320 g/ha) | effect on Italian ryegrass (K) (Italian ryegrass [5]; 320 g/ha) | effect on lambsquarters (O) (lambsquarters; 320 g/ha) | effect on persian speedwell (R) (persian speedwell [6]; 320 g/ha) | other results |
| --- | --- | --- | --- | --- | --- | --- | --- | --- | --- | --- | --- | --- | --- | --- | --- | --- |
| Cc1ccc(-c2sc3ccc(F)cc3c2-c2c(O)c(C)nn(C)c2=O)cc1 [2-012] | 3 (Herbicidal rate of 40% or more and less than 70%) | 3 (Herbicidal rate of 40% or more and less than 70%) | 0 (Herbicidal rate of 5% or less (almost no effect)) | 5 (Herbicidal rate of 90% or more (almost completely withered)) | 5 (Herbicidal rate of 90% or more (almost completely withered)) | 0 (Herbicidal rate of 5% or less (almost no effect)) | 4 (Herbicidal rate of 70% or more and less than 90%) | 5 (Herbicidal rate of 90% or more (almost completely withered)) | 4 (Herbicidal rate of 70% or more and less than 90%) | 5 (Herbicidal rate of 90% or more (almost completely withered)) | 5 (Herbicidal rate of 90% or more (almost completely withered)) | 4 (Herbicidal rate of 70% or more and less than 90%) | 4 (Herbicidal rate of 70% or more and less than 90%) | 4 (Herbicidal rate of 70% or more and less than 90%) | 5 (Herbicidal rate of 90% or more (almost completely withered)) |  |
| CCCC(=O)Oc1c(C)nn(C)c(=O)c1-c1c(-c2ccc(C)cc2)sc2ccc(F)cc12 [2-013] | 3 (Herbicidal rate of 40% or more and less than 70%) | 2 (Herbicidal rate of 20% or more and less than 40%) | 3 (Herbicidal rate of 40% or more and less than 70%) | 5 (Herbicidal rate of 90% or more (almost completely withered)) | 5 (Herbicidal rate of 90% or more (almost completely withered)) | 3 (Herbicidal rate of 40% or more and less than 70%) | 4 (Herbicidal rate of 70% or more and less than 90%) | 4 (Herbicidal rate of 70% or more and less than 90%) | 3 (Herbicidal rate of 40% or more and less than 70%) | 4 (Herbicidal rate of 70% or more and less than 90%) | 5 (Herbicidal rate of 90% or more (almost completely withered)) | 5 (Herbicidal rate of 90% or more (almost completely withered)) | 4 (Herbicidal rate of 70% or more and less than 90%) | 4 (Herbicidal rate of 70% or more and less than 90%) | 5 (Herbicidal rate of 90% or more (almost completely withered)) |  |
| COc1ccc(-c2sc3ccc(F)cc3c2-c2c(O)c(C)nn(C)c2=O)cc1 [2-026] | 3 (Herbicidal rate of 40% or more and less than 70%) | 4 (Herbicidal rate of 70% or more and less than 90%) | 5 (Herbicidal rate of 90% or more (almost completely withered)) | 4 (Herbicidal rate of 70% or more and less than 90%) | 3 (Herbicidal rate of 40% or more and less than 70%) | 3 (Herbicidal rate of 40% or more and less than 70%) | 3 (Herbicidal rate of 40% or more and less than 70%) | 5 (Herbicidal rate of 90% or more (almost completely withered)) | 4 (Herbicidal rate of 70% or more and less than 90%) | 5 (Herbicidal rate of 90% or more (almost completely withered)) | 5 (Herbicidal rate of 90% or more (almost completely withered)) | 5 (Herbicidal rate of 90% or more (almost completely withered)) | 4 (Herbicidal rate of 70% or more and less than 90%) | 4 (Herbicidal rate of 70% or more and less than 90%) | 5 (Herbicidal rate of 90% or more (almost completely withered)) |  |
| CCCC(=O)Oc1c(C)nn(C)c(=O)c1-c1c(-c2ccccc2OCC)sc2ccc(F)cc12 [2-029] |  |  |  |  |  |  |  |  |  |  |  |  |  |  |  | Herbicidal effect on A: late watergrass (grade 0-5) (late watergrass; 266 g/ha applied herbicide): 2 (Herbicidal rate of 20% or more and less than 40%); herbicidal effect rating, B: Japanese bulrush (Japanese bulrush; AAH 266 g/ha): 2 (Herbicidal rate of 20% or more and less than 40%); herbicidal effect rating, C: oval-leafed pondweed (oval-leafed pondweed; AAH 266 g/ha): 3 (Herbicidal rate of 40% or more and less than 70%); herbicidal effect rating, F: southern crabgrass (southern crabgrass [1]; 266 g/ha): 3 (Herbicidal rate of 40% or more and less than 70%); herbicidal effect rating, G: green foxtail (green foxtail; 266 g/ha): 3 (Herbicidal rate of 40% or more and less than 70%); herbicidal effect rating, J: blackgrass (blackgrass; 266 g/ha): 0 (Herbicidal rate of 5% or less (almost no effect)); herbicidal effect rating, K: Italian ryegrass (Italian ryegrass [2]; 266 g/ha): 0 (Herbicidal rate of 5% or less (almost no effect)); herbicidal effect rating, N: redroot pigweed (redroot pigweed; 266 g/ha): 4 (Herbicidal rate of 70% or more and less than 90%); herbicidal effect rating, P: chickweed (chickweed; 266 g/ha): 3 (Herbicidal rate of 40% or more and less than 70%); herbicidal effect rating, R: persian speedwell (persian speedwell [3]; 266 g/ha): 3 (Herbicidal rate of 40% or more and less than 70%); effect on southern crabgrass (F) (southern crabgrass [4]; 266 g/ha): 4 (Herbicidal rate of 70% or more and less than 90%); effect on barnyard grass (H) (barnyard grass; 266 g/ha): 5 (Herbicidal rate of 90% or more (almost completely withered)); effect on Italian ryegrass (K) (Italian ryegrass [5]; 266 g/ha): 2 (Herbicidal rate of 20% or more and less than 40%); effect on lambsquarters (O) (lambsquarters; 266 g/ha): 3 (Herbicidal rate of 40% or more and less than 70%); effect on persian speedwell (R) (persian speedwell [6]; 266 g/ha): 5 (Herbicidal rate of 90% or more (almost completely withered)) |
| CCCOc1ccc(-c2sc3ccc(F)cc3c2-c2c(O)c(C)nn(C)c2=O)cc1 [2-032] | 4 (Herbicidal rate of 70% or more and less than 90%) | 4 (Herbicidal rate of 70% or more and less than 90%) | 5 (Herbicidal rate of 90% or more (almost completely withered)) | 2 (Herbicidal rate of 20% or more and less than 40%) | 3 (Herbicidal rate of 40% or more and less than 70%) | 0 (Herbicidal rate of 5% or less (almost no effect)) | 0 (Herbicidal rate of 5% or less (almost no effect)) | 5 (Herbicidal rate of 90% or more (almost completely withered)) | 4 (Herbicidal rate of 70% or more and less than 90%) | 5 (Herbicidal rate of 90% or more (almost completely withered)) | 5 (Herbicidal rate of 90% or more (almost completely withered)) | 5 (Herbicidal rate of 90% or more (almost completely withered)) | 4 (Herbicidal rate of 70% or more and less than 90%) | 5 (Herbicidal rate of 90% or more (almost completely withered)) | 5 (Herbicidal rate of 90% or more (almost completely withered)) |  |
